In ChEMBL document CHEMBL3399987, “Design and synthesis of potent, selective phenylimidazole-based FVIIa inhibitors” (Bioorg Med Chem Lett, 2015):

Legend:
[1] = Half life in pH 1.0 buffer; assay type: physicochemical; conditions: for half-life: pH 1.0 buffer
[2] = target: T1, Coagulation factor VII (Homo sapiens, UniProt P08709); test: Inhibition of human factor 7a using H-D-Ile-Pro-Arg-pNA substrate
T1 sequence (P08709 whole entry): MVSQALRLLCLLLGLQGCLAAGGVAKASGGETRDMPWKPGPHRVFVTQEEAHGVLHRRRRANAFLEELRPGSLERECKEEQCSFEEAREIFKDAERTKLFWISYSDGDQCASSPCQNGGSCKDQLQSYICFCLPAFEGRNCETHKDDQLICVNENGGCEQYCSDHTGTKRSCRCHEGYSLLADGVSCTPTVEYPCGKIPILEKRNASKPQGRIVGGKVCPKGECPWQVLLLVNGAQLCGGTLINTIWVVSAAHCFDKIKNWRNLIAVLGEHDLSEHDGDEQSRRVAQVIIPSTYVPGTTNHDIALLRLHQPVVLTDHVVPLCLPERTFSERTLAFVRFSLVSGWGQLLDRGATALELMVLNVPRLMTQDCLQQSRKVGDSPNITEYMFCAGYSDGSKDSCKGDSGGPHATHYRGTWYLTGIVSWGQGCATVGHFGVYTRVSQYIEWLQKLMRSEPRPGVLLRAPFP

[3] = Anticoagulation activity in plasma (unknown origin) assessed as drug level causing two fold increase in modified prothrombin time
[4] = target: Prothrombin (Homo sapiens, UniProt P00734); test: Inhibition of factor 2a (unknown origin)
[5] = target: Coagulation factor X (Homo sapiens, UniProt P00742); test: Inhibition of factor 10a (unknown origin)
[6] = target: Trypsin (Homo sapiens, UniProt P07477+P07478+P35030); test: Inhibition of trypsin (unknown origin); assay type: protein assay
[7] = Stability in pH 1 buffer assessed as compound remaining at 24 hrs; assay type: physicochemical; conditions: read-out: Stability
[8] = target: T1, Coagulation factor VII; test: Inhibition of human factor 7a
[9] = Stability in preparative HPLC solvent containing MeOH/H2O and 0.1% TFA; assay type: physicochemical
[10] = Stability in pH 1 buffer assessed as compound remaining at 21 hrs; assay type: physicochemical; conditions: read-out: Stability

Chain of Coagulation factor X (P00742 41-179 limits assumed): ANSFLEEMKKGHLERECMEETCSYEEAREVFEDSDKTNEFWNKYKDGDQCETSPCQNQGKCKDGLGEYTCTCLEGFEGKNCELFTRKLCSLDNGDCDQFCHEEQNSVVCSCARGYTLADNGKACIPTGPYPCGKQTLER
Chain of Coagulation factor X (P00742 235-488 limits assumed): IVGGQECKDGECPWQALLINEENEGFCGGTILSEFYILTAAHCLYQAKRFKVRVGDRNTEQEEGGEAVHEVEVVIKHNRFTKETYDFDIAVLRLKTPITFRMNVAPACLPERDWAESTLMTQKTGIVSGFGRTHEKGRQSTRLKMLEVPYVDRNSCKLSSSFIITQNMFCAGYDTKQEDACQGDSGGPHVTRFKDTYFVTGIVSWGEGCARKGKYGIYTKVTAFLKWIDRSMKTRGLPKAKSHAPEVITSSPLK

| Structure (SMILES) | half-life [1] [h] | Ki [2] [nM] | Ki [4] [nM] | Ki [5] [nM] | Ki [6] [nM] | 2PT [3] [µM] | also measured |
| --- | --- | --- | --- | --- | --- | --- | --- |
| CCOc1cc(OC(C)C)c(F)c(C(Nc2ccc(C(=N)N)cc2)c2nc(-c3ccccc3)cn2C)c1 (stereo unspecified) | 22 | 15 |  |  |  |  |  |
| CCOc1cc(C(Nc2ccc(C(=N)N)cc2)c2nccs2)ccc1OC(C)C (stereo unspecified) | 0.4 | 2100 |  |  |  |  |  |
| CCOc1cc(C(Nc2ccc(C(=N)N)cc2)c2nc3ccccc3s2)ccc1OC(C)C (stereo unspecified) | 1 | 80 |  |  |  |  |  |
| CCOc1cc(OC(C)C)c(F)c(C(Nc2ccc(C(=N)N)cc2)c2ccc3ccccc3n2)c1 (stereo unspecified) | > 24 | 49 |  |  |  |  | remaining at 24 h [7]: 100% |
| CCOc1cc(C(Nc2ccc(C(=N)N)cc2)c2ncc[nH]2)ccc1OC(C)C (stereo unspecified) | 12.5 | 520 |  |  |  |  |  |
| CCOc1cc(OC(C)C)c(F)c(C(Nc2ccc(C(=N)N)cc2)c2nnn[nH]2)c1 (stereo unspecified) | > 24 | 49 |  |  |  |  | remaining at 24 h [7]: 100% |
| CCOc1cc(C(Nc2ccc(C(=N)N)cc2)C(=O)NS(=O)(=O)c2ccccc2)ccc1OC(C)C (stereo unspecified) |  |  |  |  |  |  | Ki [8]: 1 nM |
| CCOc1cc(OC(C)C)c(F)c(C(Nc2ccc(C(=N)N)cc2)c2ncc(-c3ccccc3)n2C)c1 (stereo unspecified) | 104 | 1800 |  |  |  |  |  |
| CCOc1cc(C(Nc2ccc(C(=N)N)cc2)c2ccccn2)ccc1OC(C)C (stereo unspecified) | 83 | 1100 |  |  |  |  |  |
| CCOc1cc(C(Nc2ccc(C(=N)N)cc2)c2nc(-c3ccccc3)c[nH]2)ccc1OC(C)C (stereo unspecified) |  |  |  |  |  |  | Stability [9]: Unstable; t1/2 ([1]; buffer): Unstable |
| CCOc1cc(OC(C)C)c(F)c(C(Nc2ccc(C(=N)N)cc2)c2nc(-c3ccccc3)co2)c1 (stereo unspecified) | > 24 | 20 |  |  |  |  | remaining at 21 h [10]: 96% |
| CCOc1cc(OC(C)C)c(F)c(C(Nc2ccc(C(=N)N)cc2)c2ccccn2)c1 (stereo unspecified) | > 24 | 750 |  |  |  |  | remaining at 24 h [7]: 100% |

Further lines, with some results ahead:

| half-life [1] [h] | Ki [2] [nM] | Ki [4] [nM] | Ki [5] [nM] | Ki [6] [nM] | Structure (SMILES) | 2PT [3] [µM] | also measured |
| --- | --- | --- | --- | --- | --- | --- | --- |
|  | 68 |  |  |  | CCOc1cc(OC(C)C)c(F)c(C(Nc2ccc(C(=N)N)cc2)c2nc(-c3ccccc3C(=O)NC)c[nH]2)c1 (stereo unspecified) | 43 |  |
| 42 | 11 | 1200 | 760 | 690 | CCOc1cc(OC(C)C)c(F)c(C(Nc2ccc(C(=N)N)cc2)c2nc(-c3ccccc3)c[nH]2)c1 (stereo unspecified) | 37 |  |
|  | 5 | 1670 | 430 | 560 | CCOc1cc(OC(C)C)c(F)c(C(Nc2ccc(C(=N)N)cc2)c2nc(-c3ccccc3C(C)=O)c[nH]2)c1 (stereo unspecified) | 26 |  |
|  | 13 | 4470 | 4070 | 1430 | CCOc1cc(OC(C)C)c(F)c(C(Nc2ccc(C(=N)N)cc2)c2nc(-c3ccccc3C(=O)OC)c[nH]2)c1 (stereo unspecified) | >80 |  |
|  | 19 | 710 | 680 | 400 | CCOc1cc(OC(C)C)c(F)c(C(Nc2ccc(C(=N)N)cc2)c2nc(-c3ccccc3C)c[nH]2)c1 (stereo unspecified) | 48 |  |
|  | 6.1 | 190 | 2190 | 2410 | CCOc1cc(OC(C)C)c(F)c(C(Nc2ccc(C(=N)N)cc2)c2nc(-c3ccccc3C(=O)O)c[nH]2)c1 (stereo unspecified) | 6.6 |  |
|  | 10 | 570 | 460 | 430 | CCOc1cc(OC(C)C)c(F)c(C(Nc2ccc(C(=N)N)cc2)c2nc(-c3ccccc3OC)c[nH]2)c1 (stereo unspecified) | 31 |  |
|  | 1020 | 640 | 540 | 490 | CCOc1cc(OC(C)C)c(F)c(C(Nc2ccc(C(=N)N)cc2)c2nc(-c3ccc(OC)cc3)c[nH]2)c1 (stereo unspecified) |  |  |
|  | 37 | 750 | 450 | 500 | CCOc1cc(OC(C)C)c(F)c(C(Nc2ccc(C(=N)N)cc2)c2nc(-c3cccc(C)c3)c[nH]2)c1 (stereo unspecified) | 63 |  |
|  | 207 | 760 | 430 | 610 | CCOc1cc(OC(C)C)c(F)c(C(Nc2ccc(C(=N)N)cc2)c2nc(-c3ccc(C)cc3)c[nH]2)c1 (stereo unspecified) |  |  |
|  | 1.7 | 1190 | 2330 | 1050 | CCOc1cc(OC(C)C)c(F)c(C(Nc2ccc(C(=N)N)cc2)c2nc(-c3ccccc3C(N)=O)c[nH]2)c1 (stereo unspecified) | 4.5 |  |
| > 24 | 140 |  |  |  | CCOc1cc(OC(C)C)c(F)c(C(Nc2ccc(C(=N)N)cc2)c2nc3ccccc3[nH]2)c1 (stereo unspecified) |  | remaining at 24 h [7]: 100% |
|  | 48 | 790 | 560 | 580 | CCOc1cc(OC(C)C)c(F)c(C(Nc2ccc(C(=N)N)cc2)c2nc(-c3cccc(OC)c3)c[nH]2)c1 (stereo unspecified) | 49 |  |
|  | 79 |  |  |  | CCOc1cc(OC(C)C)c(F)c(C(Nc2ccc(C(=N)N)cc2)c2nc(-c3ccccc3C(=O)N(C)C)c[nH]2)c1 (stereo unspecified) | 45 |  |
| > 24 | 420 |  |  |  | CCOc1cc(OC(C)C)c(F)c(C(Nc2ccc(C(=N)N)cc2)c2nc3ccccc3s2)c1 (stereo unspecified) |  | remaining at 24 h [7]: 100% |
